Measured values: patent US7157241B2, “Serine protease genes related to DPPIV” (Ferring BV, priority 2000, dated 2007)
Square brackets hold non-standard residues; d marks the D form. Peptide text beside a SMILES is read from it. * marks the point of attachment. Sta = CC(C)C[C@H](N)[C@@H](O)CC(=O)O; pNA = O=[N+]([O-])c1ccc(N*)cc1; AMC = Cc1cc(=O)oc2cc(N*)ccc12; Isovaleryl = CC(C)CC(=O)*

Experiments:
Assay type in all cases: biochemical
DPRP-1 [1] = biological target: T1, DPRP-1 (Homo sapiens, UniProt Q6V1X1); experiment: Substrate specificity, DPRP-1; conditions: substrate 125 μM, 30-minute incubation with enzyme
T1 construct: DNA fragments encoding the full-length polypeptide DPRP-1 were amplified using PCR oligonucleotide primers; made in house; host or cells: PEAK or COS-1 cells, transient transfection
Experimental: (§1) In addition to Ala-Pro-AMC, additional substrates tested also confirmed that DPRP-1 and DPRP-2 are dipeptidyl peptidases. The data were derived by determining the fluorescence change following a 30-minute incubation of the substrates (125 μM) with enzymes as a percentage of the fluorescence measured at Ala-Pro-AMC and Gly-Pro-AMC were the only good substrates among those tested.

DPRP-2 [2] = biological target: T2, DPRP-2 (Homo sapiens, UniProt Q86TI2); experiment: Substrate specificity, DPRP-2; conditions: substrate 125 μM, 30-minute incubation with enzyme
T2 construct: DNA fragments encoding the full length polypeptide DPRP-2 were amplified using PCR oligonucleotide primers; made in house; host or cells: PEAK or COS-1 cells, transient transfection
Experimental: as §1

DPPIV [3] = biological target: T3, DPPIV (Homo sapiens, UniProt P27487); experiment: Substrate specificity, DPPIV; conditions: substrate 125 μM, 30-minute incubation with enzyme
Experimental: as §1

DPRP-1 [4] = biological target: T1, DPRP-1; experiment: Continuous fluorimetric assay, kinetic properties of recombinant DPRP-1; conditions: substrate Ala-Pro-AMC; 50 mM PBS, pH7.4, 37° C., 30 min
Experimental: (§2) The kinetic properties of recombinant DPRP-1 and DPRP-2 were determined in a continuous fluorimetric assay. Buffer, pH and temperature dependence optimization led to the following assay conditions: Enzyme assays were performed in 50 mM PBS, pH7.4 50 μl (50 μg/ml) of purified enzymes were mixed with 1 μl of different concentration of Ala-Pro-AMC (Enzyme Systems). Plates were then incubated at 37° C. for 30 min, and fluorescence was detected using a Wallac 1420 Fluorimeter with λex40355 and λem535.

DPRP-2 [5] = biological target: T2, DPRP-2; experiment: Continuous fluorimetric assay, kinetic properties of recombinant DPRP-2; conditions: substrate Ala-Pro-AMC; 50 mM PBS, pH7.4, 37° C., 30 min
Experimental: as §2

DPRP-1 [6] = biological target: T1, DPRP-1; experiment: Inhibition of DPRP-1 by protease inhibitors (Ala-Pro-AMC fluorescence); conditions: for Residual activity (% of control) DPRP-1: preincubated 30 min at room temperature, Ala-Pro-AMC 100 μM
Experimental: as §2
(§3) The two purified proteases and DPPIV were preincubated with inhibitors at room temperature for 30 min. Substrate, Ala-Pro-AMC (100 μM), was then added, and the fluorescence intensity was recorded as 60 readings during a 60 min period.

DPRP-2 [7] = biological target: T2, DPRP-2; experiment: Inhibition of DPRP-2 by protease inhibitors (Ala-Pro-AMC fluorescence); conditions: for Residual activity (% of control) DPRP-2: preincubated 30 min at room temperature, Ala-Pro-AMC 100 μM
Experimental: as §2, §3

DPPIV [8] = biological target: T3, DPPIV; experiment: Inhibition of DPPIV by protease inhibitors (Ala-Pro-AMC fluorescence); conditions: for Residual activity (% of control) DPPIV: preincubated 30 min at room temperature, Ala-Pro-AMC 100 μM
Experimental: as §2, §3

[9] = protease inhibitor panel of Table 5

T1 sequence (Q6V1X1 17-898): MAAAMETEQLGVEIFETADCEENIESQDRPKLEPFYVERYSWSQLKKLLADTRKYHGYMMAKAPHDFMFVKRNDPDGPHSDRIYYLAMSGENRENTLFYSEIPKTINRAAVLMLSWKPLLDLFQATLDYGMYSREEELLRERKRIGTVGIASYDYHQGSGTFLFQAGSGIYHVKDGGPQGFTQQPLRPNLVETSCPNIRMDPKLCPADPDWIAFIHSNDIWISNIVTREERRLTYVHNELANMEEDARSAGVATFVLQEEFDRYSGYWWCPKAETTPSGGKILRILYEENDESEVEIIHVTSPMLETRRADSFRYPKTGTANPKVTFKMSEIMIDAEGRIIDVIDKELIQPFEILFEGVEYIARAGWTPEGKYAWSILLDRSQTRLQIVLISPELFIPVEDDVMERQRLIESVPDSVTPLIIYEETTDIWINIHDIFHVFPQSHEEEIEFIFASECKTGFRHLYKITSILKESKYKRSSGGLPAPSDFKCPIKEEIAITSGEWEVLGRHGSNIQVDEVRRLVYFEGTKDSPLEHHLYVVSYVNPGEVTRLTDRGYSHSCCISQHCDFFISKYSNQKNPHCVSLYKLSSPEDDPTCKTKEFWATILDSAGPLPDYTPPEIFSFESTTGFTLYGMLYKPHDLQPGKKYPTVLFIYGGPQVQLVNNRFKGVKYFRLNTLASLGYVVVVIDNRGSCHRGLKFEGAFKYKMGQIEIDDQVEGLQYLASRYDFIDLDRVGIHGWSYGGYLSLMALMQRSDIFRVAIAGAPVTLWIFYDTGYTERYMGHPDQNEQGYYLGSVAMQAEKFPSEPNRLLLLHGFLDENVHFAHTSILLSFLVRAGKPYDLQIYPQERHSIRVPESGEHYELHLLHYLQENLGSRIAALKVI
T3 sequence (P27487 whole entry): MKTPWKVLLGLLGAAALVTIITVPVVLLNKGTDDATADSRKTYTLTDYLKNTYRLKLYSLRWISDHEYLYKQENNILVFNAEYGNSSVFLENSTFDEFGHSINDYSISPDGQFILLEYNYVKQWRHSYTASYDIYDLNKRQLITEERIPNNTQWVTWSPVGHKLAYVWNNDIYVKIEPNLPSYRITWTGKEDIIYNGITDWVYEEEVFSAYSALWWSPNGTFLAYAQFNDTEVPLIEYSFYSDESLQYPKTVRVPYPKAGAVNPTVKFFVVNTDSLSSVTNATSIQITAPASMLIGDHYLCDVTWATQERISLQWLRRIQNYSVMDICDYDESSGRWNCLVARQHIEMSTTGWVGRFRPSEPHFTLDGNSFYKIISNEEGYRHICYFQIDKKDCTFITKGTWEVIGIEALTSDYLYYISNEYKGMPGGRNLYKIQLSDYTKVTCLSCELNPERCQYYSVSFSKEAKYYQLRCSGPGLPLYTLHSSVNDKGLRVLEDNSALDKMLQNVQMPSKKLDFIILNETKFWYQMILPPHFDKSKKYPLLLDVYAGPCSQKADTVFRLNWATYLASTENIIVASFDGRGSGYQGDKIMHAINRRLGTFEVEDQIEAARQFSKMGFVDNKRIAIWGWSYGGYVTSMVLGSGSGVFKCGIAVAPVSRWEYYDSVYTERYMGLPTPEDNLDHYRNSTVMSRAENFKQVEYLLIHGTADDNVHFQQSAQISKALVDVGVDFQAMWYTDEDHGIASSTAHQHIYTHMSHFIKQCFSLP
T2 sequence (Q86TI2 whole entry, the tested form may be a part): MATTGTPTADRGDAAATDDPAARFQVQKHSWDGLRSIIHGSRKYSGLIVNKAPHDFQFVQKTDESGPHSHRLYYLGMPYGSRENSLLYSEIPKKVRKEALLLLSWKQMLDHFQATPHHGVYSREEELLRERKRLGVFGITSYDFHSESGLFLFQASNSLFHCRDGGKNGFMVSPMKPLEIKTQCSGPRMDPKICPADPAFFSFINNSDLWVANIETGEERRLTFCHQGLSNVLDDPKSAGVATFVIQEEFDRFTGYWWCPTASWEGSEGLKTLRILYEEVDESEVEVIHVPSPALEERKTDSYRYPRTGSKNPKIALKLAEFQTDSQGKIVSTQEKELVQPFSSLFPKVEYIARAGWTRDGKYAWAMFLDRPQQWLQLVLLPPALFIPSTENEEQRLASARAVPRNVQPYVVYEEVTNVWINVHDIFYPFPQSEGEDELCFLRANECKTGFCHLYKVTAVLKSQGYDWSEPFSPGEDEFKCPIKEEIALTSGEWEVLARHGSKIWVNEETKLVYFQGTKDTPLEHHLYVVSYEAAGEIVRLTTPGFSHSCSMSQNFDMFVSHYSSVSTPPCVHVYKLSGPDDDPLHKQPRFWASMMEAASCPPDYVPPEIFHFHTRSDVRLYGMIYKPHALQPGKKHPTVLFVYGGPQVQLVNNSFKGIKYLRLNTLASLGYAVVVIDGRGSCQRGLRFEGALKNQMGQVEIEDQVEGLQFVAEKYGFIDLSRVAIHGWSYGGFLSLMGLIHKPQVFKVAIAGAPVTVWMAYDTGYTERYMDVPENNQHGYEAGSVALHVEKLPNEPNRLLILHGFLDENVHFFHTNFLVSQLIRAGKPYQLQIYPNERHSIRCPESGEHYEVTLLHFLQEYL

C[C@H](NC(=O)[C@@H](N)CCCCN)C(=O)Nc1ccc([N+](=O)[O-])cc1 [Lys-Ala-pNA] (H-Lys-Ala-pNA)
% Change in Fluorescence at 30 minutes DPRP-1 (DPRP-1 [1]): 2.5% | % Change in Fluorescence at 30 minutes DPRP-2 (DPRP-2 [2]): 0.5% | % Change in Fluorescence at 30 minutes DPPIV (DPPIV [3]): 0.5%

C[C@H](N)C(=O)N[C@@H](Cc1ccccc1)C(=O)N1CCC[C@H]1C(=O)Nc1ccc([N+](=O)[O-])cc1 [Ala-Phe-Pro-pNA] (H-Ala-Phe-Pro-pNA)
% Change in Fluorescence at 30 minutes DPRP-1 (DPRP-1 [1]): −4% | % Change in Fluorescence at 30 minutes DPRP-2 (DPRP-2 [2]): −0.5% | % Change in Fluorescence at 30 minutes DPPIV (DPPIV [3]): 2.0%

Cc1cc(=O)oc2cc(NC(=O)[C@@H]3CCCN3C(=O)[C@H](C)N)ccc12 [Ala-Pro-AMC] (H-Ala-Pro-{AMC})
% Change in Fluorescence at 30 minutes DPRP-1 (DPRP-1 [1]): 239.0% | % Change in Fluorescence at 30 minutes DPRP-2 (DPRP-2 [2]): 127.5% | % Change in Fluorescence at 30 minutes DPPIV (DPPIV [3]): 379.0% | Km (DPRP-1 [4]): 208 µM | Km (DPRP-2 [5]): 161 µM

O=C(Nc1ccc([N+](=O)[O-])cc1)[C@@H]1CCCN1 [Pro-pNA]
% Change in Fluorescence at 30 minutes DPRP-1 (DPRP-1 [1]): −1% | % Change in Fluorescence at 30 minutes DPRP-2 (DPRP-2 [2]): −2.5% | % Change in Fluorescence at 30 minutes DPPIV (DPPIV [3]): 0.0%

NCCc1ccc(S(=O)(=O)F)cc1 [AEBSF]
Residual activity (% of control) DPRP-1 (DPRP-1 [6]; inhibitor 5 mM): 29.6 % of control | Inhibition of DPRP-1 (in words) (DPRP-1 [6]; [9]): strong inhibition | Residual activity (% of control) DPRP-2 (DPRP-2 [7]; inhibitor 5 mM): 23.9 % of control | Inhibition of DPRP-2 (in words) (DPRP-2 [7]; [9]): strong inhibition | Residual activity (% of control) DPPIV (DPPIV [8]; inhibitor 5 mM): 21.1 % of control | Inhibition of DPPIV (in words) (DPPIV [8]; [9]): strong inhibition

OCCS [B-Mercaptoethonal]
Residual activity (% of control) DPRP-1 (DPRP-1 [6]; inhibitor 100 mM): 93.2 % of control | Residual activity (% of control) DPRP-2 (DPRP-2 [7]; inhibitor 100 mM): 84.0 % of control | Residual activity (% of control) DPPIV (DPPIV [8]; inhibitor 100 mM): 98.0 % of control

CC(=O)N[C@@H](CC(C)C)C(=O)N[C@@H](CC(C)C)C(=O)N[C@H](C=O)CCCNC(=N)N [Leupeptin]
Residual activity (% of control) DPRP-1 (DPRP-1 [6]; inhibitor 50 μg/ml): 91.1 % of control | Residual activity (% of control) DPRP-2 (DPRP-2 [7]; inhibitor 50 μg/ml): 90.4 % of control | Residual activity (% of control) DPPIV (DPPIV [8]; inhibitor 50 μg/ml): 90.7 % of control

CC(C)CC(=O)N[C@H](C(=O)N[C@H](C(=O)N[C@@H](CC(C)C)[C@@H](O)CC(=O)N[C@@H](C)C(=O)N[C@@H](CC(C)C)[C@@H](O)CC(=O)O)C(C)C)C(C)C [Pepstatin] (Isovaleryl-VV[Sta]A[Sta]-OH)
Residual activity (% of control) DPRP-1 (DPRP-1 [6]; inhibitor 2 μg/ml): 97.3 % of control | Residual activity (% of control) DPRP-2 (DPRP-2 [7]; inhibitor 2 μg/ml): 95.0 % of control | Residual activity (% of control) DPPIV (DPPIV [8]; inhibitor 2 μg/ml): 93.5 % of control

Cc1cc(=O)oc2cc(NC(=O)[C@@H]3CCCN3C(=O)CN)ccc12 [Gly-Pro-AMC] (H-Gly-Pro-{AMC})
% Change in Fluorescence at 30 minutes DPRP-1 (DPRP-1 [1]): 341.5% | % Change in Fluorescence at 30 minutes DPRP-2 (DPRP-2 [2]): 205.0% | % Change in Fluorescence at 30 minutes DPPIV (DPPIV [3]): 444.0%

C[C@H](N)C(=O)N1CCC[C@H]1C(=O)Nc1ccc([N+](=O)[O-])cc1 [Ala-Pro-pNA] (H-Ala-Pro-pNA)
% Change in Fluorescence at 30 minutes DPRP-1 (DPRP-1 [1]): 45.5% | % Change in Fluorescence at 30 minutes DPRP-2 (DPRP-2 [2]): 44.0% | % Change in Fluorescence at 30 minutes DPPIV (DPPIV [3]): 29.5%

O=C(O)CN(CCN(CC(=O)O)CC(=O)O)CC(=O)O [EDTA]
Residual activity (% of control) DPRP-1 (DPRP-1 [6]; inhibitor 2 mM): 91.5 % of control | Residual activity (% of control) DPRP-2 (DPRP-2 [7]; inhibitor 2 mM): 86.0 % of control | Residual activity (% of control) DPPIV (DPPIV [8]; inhibitor 2 mM): 93.5 % of control

Aprotinin
Residual activity (% of control) DPRP-1 (DPRP-1 [6]; inhibitor 5 μg/ml): 77.5 % of control | Residual activity (% of control) DPRP-2 (DPRP-2 [7]; inhibitor 5 μg/ml): 63.2 % of control | Residual activity (% of control) DPPIV (DPPIV [8]; inhibitor 5 μg/ml): 80.2 % of control

NCC(=O)N[C@@H](CCCN=C(N)N)C(=O)Nc1ccc([N+](=O)[O-])cc1 [Gly-Arg-pNA] (H-Gly-Arg-pNA)
% Change in Fluorescence at 30 minutes DPRP-1 (DPRP-1 [1]): −4.5% | % Change in Fluorescence at 30 minutes DPRP-2 (DPRP-2 [2]): −0.5% | % Change in Fluorescence at 30 minutes DPPIV (DPPIV [3]): 0.0%

O[C@@H](CS)[C@@H](O)CS [DTT]
Residual activity (% of control) DPRP-1 (DPRP-1 [6]; inhibitor 2 mM): 100.1 % of control | Residual activity (% of control) DPRP-2 (DPRP-2 [7]; inhibitor 2 mM): 94.8 % of control | Residual activity (% of control) DPPIV (DPPIV [8]; inhibitor 2 mM): 98.3 % of control
